Measured values published in patent publication EP1209158A1, “Substituted beta-carbolines” (Aventis Pharma Deutschland GmbH, priority 2000, dated 2002).
Structures can show the parent of a compound that is named as a salt.

Key:
[1] = tested on: mouse heterotopic cardiac transplant (BALB/c->C57BL/6 or B6/129); assay: Mouse heterotopic cardiac transplant model; format: in vivo; details: oral administration, 25 mg/kg/day for 14 days, starting at transplantation
Description: In the mouse heterotopic cardiac transplant model across full histocompatibility barriers (BALB/c->C57BL/6 or B6/129), graft survival is typically limited to 7.3 ± 0.4 days (mean ± SD, […]) (see for example in Hancock WW, Sayegh MH, Zheng XG, Peach R, Linsley PS, Turka LA. Costimulatory function and expression of CD40-ligand, CD80 and CD86 or in vascularized murine cardiac allograft rejection. Proc Natl Acad Sci (USA) 93, 1996, 13967-13972; and Hancock W W, Buelow R, Sayegh MH, Turka LA. Antibody-induced transplant arteriosclerosis is prevented by graft expression of antioxidant and anti-apoptotic genes. Nature Med 4, 1998, 1392-1396).
The effects of oral administration of the compounds according to examples 49 and 60 were tested using 25 mg/kg/day for 14 days, starting at transplantation in said animal model. Whereas grafts in animals receiving the carrier, methylcellulose, rejected by 7 days (6.7 ± 0.8), grafts in compound 49-treated mice survived around 15 days (15.3 ± 0.6), and grafts in those given compound 60 survived for 20 days (20 ± 1). Current immunosuppressive therapies used in transplantation have limited efficacy and/or considerable toxicity.

IκBα-kinase complex = target: T1, IκBα-kinase complex (Homo sapiens, UniProt O14920+O15111); assay: biochemical; details: activated kinase complex from HeLa S3 cell-extracts S100 fraction; 30 minutes pre-incubation at 25°C; biotinylated peptide substrate; read-out: IkB-kinase IC50
T1 construct: IKBα kinase complex was prepared by first diluting 10 mL of HeLa S3 cell-extracts S100 fraction; endogenous in cells; host or cells: HeLa S3 (S100 fraction, 40% ammonium sulfate cut, Superose-6 fractions at about 670 kDa)
T1 sequence (O14920 whole entry): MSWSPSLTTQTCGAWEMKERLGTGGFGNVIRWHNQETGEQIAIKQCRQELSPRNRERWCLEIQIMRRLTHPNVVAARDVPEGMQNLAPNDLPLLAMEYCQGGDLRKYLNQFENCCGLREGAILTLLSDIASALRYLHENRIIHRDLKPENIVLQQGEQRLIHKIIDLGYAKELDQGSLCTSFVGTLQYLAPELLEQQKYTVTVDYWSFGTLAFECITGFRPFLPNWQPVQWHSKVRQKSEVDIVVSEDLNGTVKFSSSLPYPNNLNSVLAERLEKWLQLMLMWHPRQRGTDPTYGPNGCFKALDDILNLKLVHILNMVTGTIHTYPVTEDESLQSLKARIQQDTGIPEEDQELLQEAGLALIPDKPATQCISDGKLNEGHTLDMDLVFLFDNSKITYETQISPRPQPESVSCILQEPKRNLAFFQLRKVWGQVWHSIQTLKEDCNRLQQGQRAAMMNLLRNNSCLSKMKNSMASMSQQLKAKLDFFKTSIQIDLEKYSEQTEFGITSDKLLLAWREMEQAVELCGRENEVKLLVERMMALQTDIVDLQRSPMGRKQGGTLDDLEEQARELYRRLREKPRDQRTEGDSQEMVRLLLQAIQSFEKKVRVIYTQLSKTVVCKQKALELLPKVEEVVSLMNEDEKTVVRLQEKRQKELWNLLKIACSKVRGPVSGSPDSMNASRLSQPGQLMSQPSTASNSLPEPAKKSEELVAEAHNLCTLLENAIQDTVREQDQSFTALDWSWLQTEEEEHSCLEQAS
T1 sequence (O15111 whole entry): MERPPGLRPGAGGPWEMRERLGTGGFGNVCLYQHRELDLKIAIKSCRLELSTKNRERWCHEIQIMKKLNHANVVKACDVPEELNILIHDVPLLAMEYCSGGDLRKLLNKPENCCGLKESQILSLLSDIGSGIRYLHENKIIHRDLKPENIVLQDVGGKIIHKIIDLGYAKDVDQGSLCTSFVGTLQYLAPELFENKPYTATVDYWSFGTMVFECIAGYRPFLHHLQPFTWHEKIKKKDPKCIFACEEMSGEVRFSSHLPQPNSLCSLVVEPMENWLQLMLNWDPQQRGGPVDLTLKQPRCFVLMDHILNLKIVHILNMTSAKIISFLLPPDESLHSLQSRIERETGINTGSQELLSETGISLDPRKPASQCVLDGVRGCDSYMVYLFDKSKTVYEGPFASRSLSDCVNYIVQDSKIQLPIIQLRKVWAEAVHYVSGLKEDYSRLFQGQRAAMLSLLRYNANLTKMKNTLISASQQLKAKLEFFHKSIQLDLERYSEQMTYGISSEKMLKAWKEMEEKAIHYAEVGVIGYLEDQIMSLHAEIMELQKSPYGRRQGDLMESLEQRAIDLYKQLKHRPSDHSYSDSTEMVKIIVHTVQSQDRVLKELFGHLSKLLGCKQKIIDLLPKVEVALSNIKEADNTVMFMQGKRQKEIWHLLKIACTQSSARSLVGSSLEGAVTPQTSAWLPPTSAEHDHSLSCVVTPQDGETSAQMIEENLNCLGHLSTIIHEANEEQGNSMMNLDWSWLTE
T1 sequence (Q9Y6K9 whole entry partner): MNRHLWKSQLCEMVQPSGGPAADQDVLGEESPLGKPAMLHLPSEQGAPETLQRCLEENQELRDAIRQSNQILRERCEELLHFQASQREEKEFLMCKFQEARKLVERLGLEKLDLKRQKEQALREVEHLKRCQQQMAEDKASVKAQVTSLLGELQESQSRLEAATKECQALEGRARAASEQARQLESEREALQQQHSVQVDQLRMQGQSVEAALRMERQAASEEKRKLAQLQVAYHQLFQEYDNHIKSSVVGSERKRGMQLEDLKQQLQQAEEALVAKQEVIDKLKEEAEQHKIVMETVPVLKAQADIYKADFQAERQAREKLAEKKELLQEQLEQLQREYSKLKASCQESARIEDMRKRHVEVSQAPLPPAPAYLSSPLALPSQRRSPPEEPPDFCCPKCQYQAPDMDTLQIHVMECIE

IC50 (IκBα-kinase complex) [nM]	Compound	graft survival [1] [days]
	7-chloro-9-(4-fluorobenzoylamino)-β-carboline trifluoroacetate [Example 49]	15.3 ± 0.6
400	CC(=O)c1nccc2c1[nH]c1cc(Br)ccc12 [Example 2, 1-acetyl-7-bromo-β-carboline]	
1000	N#Cc1ccc2c(c1)[nH]c1cnccc12 [Example 5, 7-cyano-β-carboline]	
3000	O=[N+]([O-])c1ccc2c(c1)[nH]c1cnccc12 [Example 6, 7-nitro-β-carboline hydrochloride]	
200	Brc1ccc2c3ccncc3n(Br)c2c1 [Example 8, 7,9-dibromo-β - carboline hydrochloride]	
200	Clc1ccc2c3ccncc3n(Cl)c2c1 [Example 9, 7,9-dichloro-β-carboline]	
500	CC(=O)c1nccc2c1[nH]c1cc(Cl)ccc12 [Example 13, 1-acetyl-7-chloro-β - carboline]	
4000	O=[N+]([O-])n1c2cnccc2c2ccc(Cl)cc21 [Example 14, 7-chloro-9-nitro-β-carboline]	
800	Nn1c2cnccc2c2ccc(Cl)cc21 [Example 15, 9-amino-7-chloro-β-carboline]	
2200	Oc1nccc2c1[nH]c1cc(C(F)(F)F)ccc12 [Example 41, 1-hydroxy-7-trifluoromethyl-β-carboline]	
800	FC(F)(F)c1ccc2c(c1)[nH]c1cnccc12 [Example 42, 7-trifluoromethyl-β-carboline]	
	O=C(Nc1cc(Cl)cc2c1[nH]c1cnccc12)c1cccnc1 [Example 60, N-(6-Chloro-9H-β-carbolin-8-yl)-nicotinamide]	20 ± 1

Compound	IC50 (IκBα-kinase complex) [nM]	graft survival [1] [days]
7-chloro-9-(Acetyl-methylamino)-β-carboline trifluoroacetate [Example 48]	4000	
7-chloro-9-(methylamino)-β-carboline trifluoroacetate [Example 43]	1000	
Fc1ccc2c(c1)[nH]c1cnccc12 [Example 3, 7-fluoro-β-carboline]	1000	
CC(C)c1ccc2c(c1)[nH]c1cnccc12 [Example 4, 7-isopropyl-β -carboline hydrochloride]	2500	
O=C(O)c1ccc2c(c1)[nH]c1cnccc12 [Example 7, 7-carboxy-β-carboline trifluoroacetat]	65000	
Cn1ccc2c3cccc(O)c3nc-2c1 [Example 23, 8-hydroxy-2-methyl-β-carboline]	22000	
COc1ccc2c(c1)[nH]c1cnccc12 [Example 30, 7-methoxy-β - carboline]	5200	
Fc1c(Cl)ccc2c1[nH]c1cnccc12 [Example 34, 7-chloro-8-fluoro-β - carboline]	1000	
COc1ccc2c(c1)[nH]c1c(C)nccc12 [Example 35, 7-methoxy-1-methyl-β - carboline]	3500	
